According to patent US12660819B2, “Herbicidal derivatives” (SYNGENTA CROP PROTECTION AG, priority 2020, dated 2026):

What was measured:
Format in all cases: in vivo
[1] = test system: Echinochloa crus-galli (ECHCG); test: Pre-emergence Test (glasshouse, percentage damage to the plant); details: 1000 g/ha unless otherwise stated, five-point scale
Setaria faberi (SETFA) [2] = test: Post-emergence Test (glasshouse, percentage damage to the plant); details: post-emergence spray, 1000 g/ha unless otherwise stated, evaluated after 13 days
Procedure, shortened: (§1)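 Damage was rated 13 days after treatment and expressed on a five-point scale: 5=81-100%, 4=61-80%, 3=41-60%, 2=21-40%, 1=0-20%. Spray was applied at 1000 g/ha unless otherwise stated, from acetone/water (50:50) with 0.5% Tween 20, to sown pots.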

[3] = test system: Amaranthus retoflexus (AMARE); test: as above; details: post-emergence spray, 1000 g/ha unless otherwise stated, evaluated after 13 days
Procedure, shortened: (§2)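 Seeds sown in standard soil in a glasshouse (24/16 °C day/night, 14 h light, 65% humidity), then sprayed with an aqueous solution of the compound formulated in acetone/water 50:50 with 0.5% Tween 20 at 1000 g/ha unless otherwise stated. Percentage damage was scored after 13 days on a five-point scale (5=81-100%; 1=0-20%).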

[4] = test system: Echinochloa crus-galli (ECHCG); test: as above; details: post-emergence spray, 1000 g/ha unless otherwise stated, evaluated after 13 days
Procedure, shortened: as §2

Zea mays (ZEAMX) [5] = test: as above; details: post-emergence spray, 1000 g/ha unless otherwise stated, evaluated after 13 days
Procedure, shortened: as §1

[6] = test system: Abutilon theophrasti (ABUTH); test: as above; details: post-emergence spray, 1000 g/ha unless otherwise stated, evaluated after 13 days
Procedure, shortened: as §2

[7] = test system: Ipomoea hederacea (IPOHE); test: as above; details: post-emergence spray, 1000 g/ha unless otherwise stated, evaluated after 13 days
Procedure, shortened: as §1

[8] = test system: Ipomoea hederacea (IPOHE); test: Pre-emergence Test (glasshouse, percentage damage to the plant); details: 1000 g/ha unless otherwise stated, five-point scale
[9] = test system: Amaranthus retoflexus (AMARE); test: as above; details: 1000 g/ha unless otherwise stated, five-point scale
Zea mays (ZEAMX) [10] = test: as above; details: 1000 g/ha unless otherwise stated, five-point scale
Setaria faberi (SETFA) [11] = test: as above; details: 1000 g/ha unless otherwise stated, five-point scale
[12] = test system: Abutilon theophrasti (ABUTH); test: as above; details: 1000 g/ha unless otherwise stated, five-point scale

Compound | percentage damage to the plant, ECHCG [1] | Post-emergence Test SETFA, percentage damage to the plant (five-point scale) (Setaria faberi (SETFA) [2]) | Post-emergence Test AMARE, percentage damage to the plant (five-point scale) [3] | Post-emergence Test ECHCG, percentage damage to the plant (five-point scale) [4] | Post-emergence Test ZEAMX, percentage damage to the plant (five-point scale) (Zea mays (ZEAMX) [5]) | Post-emergence Test ABUTH, percentage damage to the plant (five-point scale) [6] | Post-emergence Test IPOHE, percentage damage to the plant (five-point scale) [7] | percentage damage to the plant, IPOHE [8] | percentage damage to the plant, AMARE [9] | percentage damage to the plant, ZEAMX (Zea mays (ZEAMX) [10]) | percentage damage to the plant, SETFA (Setaria faberi (SETFA) [11]) | percentage damage to the plant, ABUTH [12]
CCn1c(C)c(-c2cc(F)cc(Cl)c2)c(=O)c(C(=O)O)c1-c1ccc(Cl)c(Cl)c1 [Compound 62, 5-(3-chloro-5-fluoro-phenyl)-2-(3,4-dichlorophenyl)-1-ethyl-6-methyl-4-oxo-pyridine-3-carboxylic acid] | 1 (1=0-20%) | 1 (1=0-20%) | 1 (1=0-20%) | 1 (1=0-20%) | 1 (1=0-20%) | 2 (2=21-40%) | 2 (2=21-40%) | 1 (1=0-20%) | 1 (1=0-20%) | 1 (1=0-20%) | 2 (2=21-40%) | 1 (1=0-20%)
CCOc1cc(C)cc(-c2c(C)n(CC)c(-c3ccc(Cl)c(Cl)c3)c(C(=O)O)c2=O)c1 [Compound 103, 2-(3,4-dichlorophenyl)-5-(3-ethoxy-5-methyl-phenyl)-1-ethyl-6-methyl-4-oxo-pyridine-3-carboxylic acid] | 1 (1=0-20%) | 1 (1=0-20%) | 1 (1=0-20%) | 1 (1=0-20%) | 1 (1=0-20%) | 2 (2=21-40%) | 1 (1=0-20%) | 1 (1=0-20%) | 1 (1=0-20%) | 1 (1=0-20%) | 2 (2=21-40%) | 1 (1=0-20%)
CCn1c(C)c(-c2ccc(Cl)cc2)c(=O)c(C(=O)O)c1-c1ccc(Cl)cc1 [Compound 138, 2,5-bis(4-chlorophenyl)-1-ethyl-6-methyl-4-oxo-pyridine-3-carboxylic acid] | 3 (3=41-60%) | 3 (3=41-60%) | 1 (1=0-20%) | 2 (2=21-40%) | 0 | 3 (3=41-60%) | 1 (1=0-20%) | 1 (1=0-20%) | 5 (5=81-100%) | 1 (1=0-20%) | 5 (5=81-100%) | 3 (3=41-60%)
CCn1c(C)c(-c2cccc(SC)c2)c(=O)c(C(=O)O)c1-c1ccc(Cl)c(Cl)c1 [Compound 114, 2-(3,4-dichlorophenyl)-1-ethyl-6-methyl-5-(3-methylsulfanylphenyl)-4-oxo-pyridine-3-carboxylic acid] | 1 (1=0-20%) | 1 (1=0-20%) | 1 (1=0-20%) | 1 (1=0-20%) | 1 (1=0-20%) | 1 (1=0-20%) | 1 (1=0-20%) | 1 (1=0-20%) | 1 (1=0-20%) | 1 (1=0-20%) | 1 (1=0-20%) | 1 (1=0-20%)
CCn1c(C)c(-c2ccc(C#N)cc2)c(=O)c(C(=O)O)c1-c1ccc(Cl)c(Cl)n1 [Compound 146, 5-(4-cyanophenyl)-2-(5,6-dichloro-2-pyridyl)-1-ethyl-6-methyl-4-oxo-oyridine-3-carboxylic acid] | 4 (4=61-80%) | 4 (4=61-80%) | 2 (2=21-40%) | 4 (4=61-80%) | 3 (3=41-60%) | 3 (3=41-60%) | 4 (4=61-80%) | 0 | 1 (1=0-20%) | 1 (1=0-20%) | 4 (4=61-80%) | 1 (1=0-20%)
CCn1c(C)c(-c2cccc(C#N)c2)c(=O)c(C(=O)O)c1-c1ccc(Cl)c(Cl)n1 [Compound 147, 5-(3-cyanophenyl)-2-(5,6-dichloro-2-pyridyl)-1-ethyl-6-methyl-4-oxo-pyridine-3-carboxylic acid] | 0 | 2 (2=21-40%) | 0 | 2 (2=21-40%) | 2 (2=21-40%) | 2 (2=21-40%) | 2 (2=21-40%) | 0 | 0 | 0 | 0 | 0
CCn1c(C)c(-c2ccc(C(F)(F)F)nc2)c(=O)c(C(=O)O)c1-c1ccc(Cl)c(Cl)c1 [Compound 108, 2-(3,4-dichlorophenyl)-1-ethyl-6-methyl-4-oxo-5-[6-(trifluoromethyl)-3-pyridyl]pyridine-3-carboxylic acid] | 1 (1=0-20%) | 3 (3=41-60%) | 2 (2=21-40%) | 2 (2=21-40%) | 2 (2=21-40%) | 2 (2=21-40%) | 2 (2=21-40%) | 1 (1=0-20%) | 1 (1=0-20%) | 1 (1=0-20%) | 3 (3=41-60%) | 1 (1=0-20%)
CCn1c(C)c(-c2ccc(Cl)cc2F)c(=O)c(C(=O)O)c1-c1ccc(Cl)c(Cl)c1 [Compound 153, 5-(4-chloro-2-fluoro-phenyl)-2-(3,4-dichlorophenyl)-1-ethyl-6-methyl-4-oxo-pyridine-3-carboxylic acid] | 5 (5=81-100%) | 5 (5=81-100%) | 5 (5=81-100%) | 5 (5=81-100%) | 5 (5=81-100%) | 5 (5=81-100%) | 5 (5=81-100%) | 4 (4=61-80%) | 5 (5=81-100%) | 4 (4=61-80%) | 5 (5=81-100%) | 5 (5=81-100%)
CCn1c(C)c(-c2cnc3c(c2)OC(F)(F)O3)c(=O)c(C(=O)O)c1-c1ccc(Cl)c(Cl)c1 [Compound 60, 2-(3,4-dichlorophenyl)-5-(2,2-difluoro-[1,3]dioxolo[4,5-b]pyridin-6-yl)-1-ethyl-6-methyl-4-oxo-pyridine-3-carboxylic acid] | 2 (2=21-40%) | 4 (4=61-80%) | 2 (2=21-40%) | 3 (3=41-60%) | 1 (1=0-20%) | 2 (2=21-40%) | 2 (2=21-40%) | 2 (2=21-40%) | 2 (2=21-40%) | 1 (1=0-20%) | 4 (4=61-80%) | 3 (3=41-60%)
CCn1c(C)c(-c2cccc(C#N)c2)c(=O)c(C(=O)O)c1-c1ccnc(Cl)c1 [Compound 141, 2-(2-chloro-4-pyridyl)-5-(3-cyanophenyl)-1-ethyl-6-methyl-4-oxo-pyridine-3-carboxylic acid] | 0 | 0 | 0 | 0 | 0 | 0 | 0 | 0 | 0 | 0 | 0 | 0
